In patent publication US9611277B2 (Janssen Pharmaceutica NV, priority 2013, dated 2017):

How the values were obtained:
rat orexin 1 receptor = rat orexin 1 receptor (Rattus norvegicus, UniProt P56718); assay: Rat orexin 1 receptor radioligand binding; details: rat orexin 1 receptor; averages of 2-20 runs; read-out: rOX1 Ki
How it was run: (§1)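 Ki values derive from one-site competition IC50s corrected with the radioligand's predetermined Kd, triplicates per run, averaged over 2-20 runs. Cell homogenates (rat or human OX1R) compete against [^3H]-thiazolyl-oxadiazolyl-pyrrolidine methanone in PBS; 10 μM almorexant sets nonspecific binding; scintillation counting after washing.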

human orexin 2 receptor = human orexin 2 receptor (Homo sapiens (Human), UniProt O43614); assay: Human orexin 2 receptor radioligand binding; details: human orexin 2 receptor; averages of 2-20 runs; read-out: hOX2 Ki
How it was run: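 Ki derived from one-site competition IC50 using predetermined Kd of [3H]-EMPA, triplicate points, 2-20 runs averaged. Binding done on homogenized HEK293 cells stably expressing human orexin 2 receptor, DMSO ≤0.1%, with 10 μM almorexant defining nonspecific binding; filtered, washed, scintillation counted.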

human orexin 1 receptor = human orexin 1 receptor (Homo sapiens, UniProt O43613); assay: Human orexin 1 receptor radioligand binding; details: human orexin 1 receptor; averages of 2-20 runs; read-out: hOX1 Ki
How it was run: as §1

human orexin 2 receptor, sequence (O43614 whole entry): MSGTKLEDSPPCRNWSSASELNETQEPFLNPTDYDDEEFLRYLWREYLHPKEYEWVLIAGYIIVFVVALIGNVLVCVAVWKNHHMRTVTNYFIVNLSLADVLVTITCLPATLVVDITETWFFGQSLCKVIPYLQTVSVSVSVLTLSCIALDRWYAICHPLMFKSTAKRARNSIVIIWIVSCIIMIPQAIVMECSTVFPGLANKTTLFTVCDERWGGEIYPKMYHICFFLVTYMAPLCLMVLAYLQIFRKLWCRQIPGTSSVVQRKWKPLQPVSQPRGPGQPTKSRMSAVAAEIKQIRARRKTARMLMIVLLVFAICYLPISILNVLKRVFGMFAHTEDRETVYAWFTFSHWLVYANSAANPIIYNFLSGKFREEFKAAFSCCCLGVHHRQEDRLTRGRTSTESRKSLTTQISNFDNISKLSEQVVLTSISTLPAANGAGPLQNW

Row | SMILES | Ki (rat orexin 1 receptor) [nM] | Ki (human orexin 2 receptor) [nM] | Ki (human orexin 1 receptor) [nM]
1 | O=C(c1ccccc1-n1nccn1)N1C[C@H]2C[C@@H](Oc3ccc(Cl)cn3)[C@@H]1C2 [Example 112, (2-(2H-1,2,3-triazol-2-yl)phenyl)((1S,4R,6R)-6-((5-chloropyridin-2-yl)oxy)-2-azabicyclo[2.2.1]heptan-2-yl)methanone] | 8 | 459 | 10
2 | O=C(c1cc(F)ccc1-n1nccn1)N1C[C@H]2C[C@@H](Oc3ccc(Cl)cn3)[C@@H]1C2 [Example 113, ((1S,4R,6R)-6-((5-chloropyridin-2-yl)oxy)-2-azabicyclo[2.2.1]heptan-2-yl)(5-fluoro-2-(2H-1,2,3-triazol-2-yl)phenyl)methanone] | 17 | 984 | 14
3 | Cc1ccc(-n2nccn2)c(C(=O)N2C[C@H]3C[C@@H](Oc4ccc(Cl)cn4)[C@@H]2C3)n1 [Example 114, ((1S,4R,6R)-6-((5-chloropyridin-2-yl)oxy)-2-azabicyclo[2.2.1]heptan-2-yl)(6-methyl-3-(2H-1,2,3-triazol-2-yl)pyridin-2-yl)methanone] | 11 | 668 | 23
4 | O=C(c1cccc(F)c1-c1ncccn1)N1C[C@H]2C[C@@H](Oc3ccc(Cl)cn3)[C@@H]1C2 [Example 115, ((1S,4R,6R)-6-((5-chloropyridin-2-yl)oxy)-2-azabicyclo[2.2.1]heptan-2-yl)(3-fluoro-2-(pyrimidin-2-yl)phenyl)methanone] | 7 | 852 | 8
5 | O=C(c1ccccc1-c1ncc(F)cn1)N1C[C@H]2C[C@@H](Oc3ccc(Cl)cn3)[C@@H]1C2 [Example 116, ((1S,4R,6R)-6-((5-chloropyridin-2-yl)oxy)-2-azabicyclo[2.2.1]heptan-2-yl)(2-(5-fluoropyrimidin-2-yl)phenyl)methanone] | 11 | 939 | 12
6 | O=C(c1cccc(F)c1-c1ncc(F)cn1)N1C[C@H]2C[C@@H](Oc3ccc(Cl)cn3)[C@@H]1C2 [Example 117, ((1S,4R,6R)-6-((5-chloropyridin-2-yl)oxy)-2-azabicyclo[2.2.1]heptan-2-yl)(3-fluoro-2-(5-fluoropyrimidin-2-yl)phenyl)methanone] | 16 | 1600 | 28
7 | O=C(c1ccccc1-n1nccn1)N1C[C@H]2C[C@@H](Oc3ccc(F)cn3)[C@@H]1C2 [Example 118, (2-(2H-1,2,3-triazol-2-yl)phenyl)((1S,4R,6R)-6-((5-fluoropyridin-2-yl)oxy)-2-azabicyclo[2.2.1]heptan-2-yl)methanone] | 133 | 1600 | 105
8 | O=C(c1cccc(F)c1-c1ncccn1)N1C[C@H]2C[C@@H](Oc3ccc(F)cn3)[C@@H]1C2 [Example 120, (3-fluoro-2-(pyrimidin-2-yl)phenyl)((1S,4R,6R)-6-((5-fluoropyridin-2-yl)oxy)-2-azabicyclo[2.2.1]heptan-2-yl)methanone] | 60 | 4100 | 111
9 | O=C(c1ccccc1-n1nccn1)N1C[C@H]2C[C@@H](Oc3ccc(C(F)F)cn3)[C@@H]1C2 [Example 121, (2-(2H-1,2,3-triazol-2-yl)phenyl)((1S,4R,6R)-6-((5-(difluoromethyl)pyridin-2-yl)oxy)-2-azabicyclo[2.2.1]heptan-2-yl)methanone] | 10 | 50 | 11
10 | Cc1ccc(-n2nccn2)c(C(=O)N2C[C@H]3C[C@@H](Oc4ccc(C(F)F)cn4)[C@@H]2C3)n1 [Example 122, ((1S,4R,6R)-6-((5-(difluoromethyl)pyridin-2-yl)oxy)-2-azabicyclo[2.2.1]heptan-2-yl)(6-methyl-3-(2H-1,2,3-triazol-2-yl)pyridin-2-yl)methanone] | 28 | 218 | 30
11 | O=C(c1cccc(F)c1-c1ncccn1)N1C[C@H]2C[C@@H](Oc3ccc(C(F)F)cn3)[C@@H]1C2 [Example 123, ((1S,4R,6R)-6-((5-(difluoromethyl)pyridin-2-yl)oxy)-2-azabicyclo[2.2.1]heptan-2-yl)(3-fluoro-2-(pyrimidin-2-yl)phenyl)methanone] | 11 | 149 | 10
12 | O=C(c1cc(F)ccc1-n1nccn1)N1C[C@H]2C[C@@H](Oc3cnc(C(F)(F)F)cn3)[C@@H]1C2 [Example 124, (5-fluoro-2-(2H-1,2,3-triazol-2-yl)phenyl)((1S,4R,6R)-6-((5-(trifluoromethyl)pyrazin-2-yl)oxy)-2-azabicyclo[2.2.1]heptan-2-yl)methanone] | 200 | 4500 | 109
13 | Cc1ccc(-n2nccn2)c(C(=O)N2C[C@H]3C[C@@H](Oc4cnc(C(F)(F)F)cn4)[C@@H]2C3)n1 [Example 125, (6-methyl-3-(2H-1,2,3-triazol-2-yl)pyridin-2-yl)((1S,4R,6R)-6-((5-(trifluoromethyl)pyrazin-2-yl)oxy)-2-azabicyclo[2.2.1]heptan-2-yl)methanone] | 220 | 5500 | 88
14 | O=C(c1cccc(F)c1-c1ncccn1)N1C[C@H]2C[C@@H](Oc3cnc(C(F)(F)F)cn3)[C@@H]1C2 [Example 126, (3-fluoro-2-(pyrimidin-2-yl)phenyl)((1S,4R,6R)-6-((5-(trifluoromethyl)pyrazin-2-yl)oxy)-2-azabicyclo[2.2.1]heptan-2-yl)methanone] | 27 | 4200 | 22
15 | O=C(c1ccc(F)cc1-c1ncccn1)N1C[C@H]2C[C@@H](Oc3cnc(C(F)(F)F)cn3)[C@@H]1C2 [Example 127, (4-fluoro-2-(pyrimidin-2-yl)phenyl)((1S,4R,6R)-6-((5-(trifluoromethyl)pyrazin-2-yl)oxy)-2-azabicyclo[2.2.1]heptan-2-yl)methanone] | 116 | > 10000 | 143
16 | O=C(c1cc(F)ccc1-c1ncccn1)N1C[C@H]2C[C@@H](Oc3cnc(C(F)(F)F)cn3)[C@@H]1C2 [Example 128, (5-fluoro-2-(pyrimidin-2-yl)phenyl)((1S,4R,6R)-6-((5-(trifluoromethyl)pyrazin-2-yl)oxy)-2-azabicyclo[2.2.1]heptan-2-yl)methanone] | 69 | 3800 | 62
17 | O=C(c1c(F)cccc1-c1ncccn1)N1C[C@H]2C[C@@H](Oc3cnc(C(F)(F)F)cn3)[C@@H]1C2 [Example 129, (2-fluoro-6-(pyrimidin-2-yl)phenyl)((1S,4R,6R)-6-((5-(trifluoromethyl)pyrazin-2-yl)oxy)-2-azabicyclo[2.2.1]heptan-2-yl)methanone] | 53 | 4400 | 47
18 | O=C(c1ccccc1-c1ncccn1)N1C[C@H]2C[C@@H](Oc3cnc(C(F)(F)F)cn3)[C@@H]1C2 [Example 130, (2-(pyrimidin-2-yl)phenyl)((1S,4R,6R)-6-((5-(trifluoromethyl)pyrazin-2-yl)oxy)-2-azabicyclo[2.2.1]heptan-2-yl)methanone] | 29 | 3500 | 27
19 | Cc1cnc(O[C@@H]2C[C@H]3C[C@@H]2N(C(=O)c2ccccc2-n2nccn2)C3)nc1 [Example 131, (2-(2H-1,2,3-triazol-2-yl)phenyl)((1S,4R,6R)-6-((5-methylpyrimidin-2-yl)oxy)-2-azabicyclo[2.2.1]heptan-2-yl)methanone] | 140 | 2200 | 132
20 | Cc1cnc(O[C@@H]2C[C@H]3C[C@@H]2N(C(=O)c2cccc(F)c2-c2ncccn2)C3)nc1 [Example 133, (3-fluoro-2-(pyrimidin-2-yl)phenyl)((1S,4R,6R)-6-((5-methylpyrimidin-2-yl)oxy)-2-azabicyclo[2.2.1]heptan-2-yl)methanone] | 60 | 4200 | 102
21 | CCc1cnc(O[C@@H]2C[C@H]3C[C@@H]2N(C(=O)c2ccccc2-n2nccn2)C3)nc1 [Example 135, (2-(2H-1,2,3-triazol-2-yl)phenyl)((1S,4R,6R)-6-((5-ethylpyrimidin-2-yl)oxy)-2-azabicyclo[2.2.1]heptan-2-yl)methanone] | 61 | 1200 | 100
22 | CCc1cnc(O[C@@H]2C[C@H]3C[C@@H]2N(C(=O)c2cccc(F)c2-c2ncccn2)C3)nc1 [Example 137, ((1S,4R,6R)-6-((5-ethylpyrimidin-2-yl)oxy)-2-azabicyclo[2.2.1]heptan-2-yl)(3-fluoro-2-(pyrimidin-2-yl)phenyl)methanone] | 39 | 1700 | 65
23 | O=C(c1ccccc1-n1nccn1)N1C[C@H]2C[C@@H](Oc3ccc(C(F)(F)F)nn3)[C@@H]1C2 [Example 139, (2-(2H-1,2,3-triazol-2-yl)phenyl)((1S,4R,6R)-6-((6-(trifluoromethyl)pyridazin-3-yl)oxy)-2-azabicyclo[2.2.1]heptan-2-yl)methanone] | 208 | 3700 | 150
24 | O=C(c1cccc(F)c1-c1ncccn1)N1C[C@H]2C[C@@H](Oc3ccc(C(F)(F)F)nn3)[C@@H]1C2 [Example 141, (3-fluoro-2-(pyrimidin-2-yl)phenyl)((1S,4R,6R)-6-((6-(trifluoromethyl)pyridazin-3-yl)oxy)-2-azabicyclo[2.2.1]heptan-2-yl)methanone] | 208 | > 10000 | 348
